Source: ChEMBL document CHEMBL1201862, “PubChem BioAssay data set” (2004)
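Compound exposure: 48 hours, 5 concentrations, 96-well plates. GI50 marks 50% less growth.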 Activity calls are given as the source filed them. Rule as the data show it: active = GI50 up to about 1.1 µM and inactive = higher.

Tests used:
Assay in all cases: growth of human tumour cells (NCI), 48 h
[1] = test system: UACC-62
[2] = test system: MCF7
[3] = test system: UACC-257
[4] = test system: RPMI-8226
[5] = test system: HOP-92
[6] = test system: DU-145
[7] = test system: EKVX
[8] = test system: MOLT-4
[9] = test system: KM12
[10] = test system: NCI-H226
[11] = test system: MDA-MB-435
[12] = test system: CAKI-1
[13] = test system: M14
[14] = test system: HCT-116
[15] = test system: OVCAR-5
[16] = test system: SK-MEL-2
[17] = test system: UO-31
[18] = test system: SR
[19] = test system: LOX IMVI
[20] = test system: RXF 393

Measured: GI50

O=c1[nH]c(=S)c2cc3c(=S)[nH]c(=O)n(CCC(c4ccccc4)(c4ccccc4)c4ccccc4)c3nc2n1CCC(c1ccccc1)(c1ccccc1)c1ccccc1
inactive: [1] > 100 µM | [2] > 100 µM | [3] > 100 µM | [4] > 100 µM | [5] > 100 µM | [6] > 100 µM | [7] > 100 µM | [8] 15.4 µM | [9] > 100 µM | [10] > 100 µM | [11] > 100 µM | [12] > 100 µM | [13] > 100 µM | [14] > 100 µM | [15] > 100 µM | [16] > 100 µM | [17] > 100 µM

O=C(Nc1cccc(C(F)(F)F)c1)O/N=C(/Cl)CCl
inactive: [2] 21.6 µM | [3] > 100 µM | [4] 27 µM | [5] 22 µM | [6] > 100 µM | [7] > 100 µM | [18] 22.6 µM | [19] 19 µM | [8] 28.2 µM | [9] > 100 µM | [12] > 100 µM | [13] > 100 µM | [14] 55.7 µM | [15] 21.8 µM | [16] 67.6 µM | [17] > 100 µM

CN1CNc2nc(N)n(C)c(=O)c2C1
inactive: [20] > 10 µM | [1] > 10 µM | [3] > 10 µM | [5] > 10 µM | [6] > 10 µM | [7] > 10 µM | [18] > 10 µM | [8] > 10 µM | [9] > 10 µM | [10] > 10 µM | [11] > 10 µM | [13] > 10 µM | [15] > 10 µM | [16] > 10 µM | [17] > 10 µM

COc1cc(-c2nnc3n2NC=C(C(=O)O)S3)cc(OC)c1OC
inactive: [20] > 100 µM | [1] > 93.5 µM | [3] > 100 µM | [4] > 49.4 µM | [5] > 100 µM | [7] > 100 µM | [18] 41.6 µM | [19] > 100 µM | [8] > 100 µM | [9] > 95.1 µM | [10] > 100 µM | [12] > 100 µM | [13] > 81.3 µM | [14] > 55.1 µM | [15] > 100 µM | [16] > 100 µM | [17] > 100 µM

COc1cc2ccc3c4cc(OC)c(OC(C)C)cc4c[n+](C)c3c2cc1OC
inactive: [20] 27.7 µM | [1] 55.2 µM | [3] 28.2 µM | [4] > 100 µM | [5] 36.7 µM | [7] > 100 µM | [18] 47.8 µM | [19] 54.3 µM | [8] > 100 µM | [9] > 100 µM | [10] 71.3 µM | [12] > 100 µM | [13] 64.6 µM | [14] > 100 µM | [15] > 100 µM | [16] 30.8 µM | [17] > 100 µM

CCCN1C(=O)CNC(=O)c2[nH]cnc21
inactive: [20] > 100 µM | [1] 48.3 µM | [3] > 100 µM | [4] > 100 µM | [5] > 100 µM | [7] > 100 µM | [18] > 100 µM | [19] > 100 µM | [8] > 100 µM | [9] > 100 µM | [10] > 100 µM | [12] > 100 µM | [13] > 100 µM | [14] > 100 µM | [15] > 100 µM | [16] > 100 µM | [17] > 100 µM

O=c1nc(N2CCCC2)nc(N2CCCC2)s1
inactive: [20] > 100 µM | [1] > 100 µM | [3] > 100 µM | [4] > 100 µM | [5] > 100 µM | [7] > 100 µM | [18] > 100 µM | [19] > 100 µM | [8] > 100 µM | [9] > 100 µM | [10] 7.21 µM | [12] 97.9 µM | [13] > 100 µM | [14] > 100 µM | [15] > 100 µM | [16] > 100 µM | [17] 78.7 µM

O=C1CNc2cc(N3CCN(c4ccccc4)CC3)ccc2N1
inactive: [20] > 100 µM | [1] > 100 µM | [3] > 100 µM | [4] > 100 µM | [5] > 100 µM | [6] > 100 µM | [7] 34.1 µM | [18] > 100 µM | [19] > 100 µM | [8] > 100 µM | [9] > 100 µM | [10] > 100 µM | [11] > 100 µM | [12] > 100 µM | [13] > 100 µM | [14] > 100 µM | [15] > 100 µM | [16] > 100 µM | [17] > 100 µM

Cc1ccc(/N=C2\SC(=S)N(CCC[N+](C)(C)C)\C2=N/c2ccc(C)cc2)cc1
inactive: [20] 2.49 µM | [1] 10 µM | [2] 21.6 µM | [3] 12 µM | [4] 6.01 µM | [5] 14.2 µM | [7] 17 µM | [18] 7.03 µM | [8] 10.1 µM | [9] 24.4 µM | [10] 21.7 µM | [13] 21.1 µM | [14] 11 µM | [15] 14.5 µM | [16] 11 µM | [17] 18.5 µM
